Where a name gives a salt, the structure may show the parent alone.

The test system of data set [1] is EGI-1 cell line. Briefly: subcutaneous xenograft model (EGI-1 cell line). The data set is classed as in vivo, athymic nude mice. On the procedure: FIG. 3G is a photograph of tumors obtained in a subcutaneous xenograft model using athymic nude mice (top row=vehicle treated; bottom row=20 mg/kg/day Tivozanib treatment for 28 days).
FIG. 3L provides a photograph of tumors obtained in an EGI-1 CCA cell line subcutaneous xenograft model following 28 days of treatment with vehicle or bevacizumab (top row=vehicle treated; bottom row=bevacizumab). Bevacizumab was provided at the standard murine dose. […] However, the reduction was not as dramatic as that seen with tivozanib alone (see FIG. 3H). As bevacizumab is an anti-VEGF antibody, the reduction seen in tumor volume provided by tivozanib cannot be attributed to its VEGF inhibitory properties alone; otherwise, a similar reduction would have been expected with bevacizumab.
To confirm that the tumoricidal effects of tivozanib were not due to its activity as a VEGF inhibitor, but could be attributed to action on SLK, the antitumor effects of bevacizumab, an anti-VEGF antibody, on EGI-1 cholangiocarcinoma xenografts were evaluated. […] If the decrease in tumor size with tivozanib was due solely to its activity as a VEGF inhibitor, bevacizumab should have produced similar results.

The conditions of data set [2]: cited from earlier work.
Data set [3] deals with AKT S473 phosphorylation. The experiment in a line: AKT S473 phosphorylation in WITT cholangiocarcinoma cells. Type of data set: cell-based. Particulars: WITT cell line, compared to control levels.
The test system of data set [4] is various tumor cell types including human renal cell carcinoma. The note with it: tumor xenograft models in mice and rats; cited from earlier work.
Data set [5] deals with c-kit (Homo sapiens, UniProt P10721). Particulars: at clinically relevant concentrations; cited from earlier work.
Chain of c-kit (P10721 26-976): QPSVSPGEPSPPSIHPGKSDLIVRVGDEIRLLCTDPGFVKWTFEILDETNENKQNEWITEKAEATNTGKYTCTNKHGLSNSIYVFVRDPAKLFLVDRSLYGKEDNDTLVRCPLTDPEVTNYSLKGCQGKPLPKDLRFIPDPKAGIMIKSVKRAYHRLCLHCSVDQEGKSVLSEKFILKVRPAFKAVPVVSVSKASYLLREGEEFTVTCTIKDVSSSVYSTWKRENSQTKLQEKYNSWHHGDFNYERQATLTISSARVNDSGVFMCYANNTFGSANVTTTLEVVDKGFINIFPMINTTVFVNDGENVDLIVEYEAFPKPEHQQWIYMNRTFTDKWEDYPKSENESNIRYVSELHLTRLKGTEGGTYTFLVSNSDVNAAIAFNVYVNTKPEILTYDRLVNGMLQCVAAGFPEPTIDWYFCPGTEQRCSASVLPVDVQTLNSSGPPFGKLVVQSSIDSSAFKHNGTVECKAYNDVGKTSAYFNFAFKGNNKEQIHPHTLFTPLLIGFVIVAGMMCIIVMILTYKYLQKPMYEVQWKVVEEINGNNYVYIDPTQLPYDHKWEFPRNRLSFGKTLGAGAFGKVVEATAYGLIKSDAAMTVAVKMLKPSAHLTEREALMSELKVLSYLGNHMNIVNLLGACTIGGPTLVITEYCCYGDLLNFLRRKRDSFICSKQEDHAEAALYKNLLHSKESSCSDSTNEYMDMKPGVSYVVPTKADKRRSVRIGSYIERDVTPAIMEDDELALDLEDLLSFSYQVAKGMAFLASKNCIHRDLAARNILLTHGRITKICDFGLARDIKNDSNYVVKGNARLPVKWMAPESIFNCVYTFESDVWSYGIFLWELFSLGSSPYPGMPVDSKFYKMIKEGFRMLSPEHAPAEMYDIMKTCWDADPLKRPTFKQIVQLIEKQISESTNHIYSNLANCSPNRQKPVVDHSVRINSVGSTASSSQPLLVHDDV
The target in data set [6] is PDGFR β (Homo sapiens, UniProt P09619). The note with it: at clinically relevant concentrations; cited from earlier work.
Chain of PDGFR β (P09619 33-1106): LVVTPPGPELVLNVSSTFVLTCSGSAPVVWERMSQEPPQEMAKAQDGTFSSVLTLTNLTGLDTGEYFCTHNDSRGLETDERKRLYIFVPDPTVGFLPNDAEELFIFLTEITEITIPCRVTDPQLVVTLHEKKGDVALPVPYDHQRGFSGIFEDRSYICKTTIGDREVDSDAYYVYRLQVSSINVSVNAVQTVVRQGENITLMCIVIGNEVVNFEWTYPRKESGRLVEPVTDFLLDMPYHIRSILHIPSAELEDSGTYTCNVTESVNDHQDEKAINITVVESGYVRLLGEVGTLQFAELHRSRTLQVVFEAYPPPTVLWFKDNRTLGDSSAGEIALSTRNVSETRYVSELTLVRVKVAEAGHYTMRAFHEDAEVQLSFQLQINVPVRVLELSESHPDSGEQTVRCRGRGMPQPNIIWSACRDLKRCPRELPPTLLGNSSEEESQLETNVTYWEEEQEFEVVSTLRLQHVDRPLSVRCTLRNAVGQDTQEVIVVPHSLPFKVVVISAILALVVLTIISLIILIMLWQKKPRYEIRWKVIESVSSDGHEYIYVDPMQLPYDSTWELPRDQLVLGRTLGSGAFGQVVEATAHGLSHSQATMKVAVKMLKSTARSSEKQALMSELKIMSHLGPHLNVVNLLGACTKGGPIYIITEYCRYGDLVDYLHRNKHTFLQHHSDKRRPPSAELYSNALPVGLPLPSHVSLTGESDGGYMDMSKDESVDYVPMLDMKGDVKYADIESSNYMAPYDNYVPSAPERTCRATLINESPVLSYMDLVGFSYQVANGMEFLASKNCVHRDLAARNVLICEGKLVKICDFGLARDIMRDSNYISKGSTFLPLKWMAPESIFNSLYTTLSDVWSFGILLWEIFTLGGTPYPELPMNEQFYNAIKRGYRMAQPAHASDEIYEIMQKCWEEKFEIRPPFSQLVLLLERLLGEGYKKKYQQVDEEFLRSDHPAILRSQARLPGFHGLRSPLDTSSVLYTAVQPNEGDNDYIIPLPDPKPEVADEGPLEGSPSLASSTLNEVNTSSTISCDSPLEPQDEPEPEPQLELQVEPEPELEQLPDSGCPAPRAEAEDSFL
Data set [7] concerns AKT S473 phosphorylation. The experiment in a line: AKT S473 phosphorylation in EGI-1 cholangiocarcinoma cells. Type of data set: cell-based. The note with it: EGI-1 cell line, compared to control levels.
Data set [8] concerns WITT. The experiment in a line: proliferation of WITT cholangiocarcinoma cells. The data set is classed as cell-based. The note with it: WITT cell line; IC50 only in FIG. 3C-3E.
For data set [9], the system named is EGI-1. Briefly: tumor organoid assay, EGI-1. Type of data set: cell-based. The note with it: tivozanib at 200 nM vs control. On the procedure:
(§1) Images of control are on the top row, whereas the effects of tivozanib at 200 nM are shown in the bottom row where the tumor organoids are smaller and fewer than in the control.

In data set [10] the test system is SNU-1079. Briefly: proliferation of SNU-1079 cholangiocarcinoma cells. The data set is classed as cell-based. Particulars: SNU-1079 cell line; IC50 only in FIG. 3C-3E.
For data set [11] the following is noted: patients on Tivozanib; cited from earlier work.
Data set [12] concerns EGI-1. The experiment in a line: proliferation of EGI-1 cholangiocarcinoma cells. The data set is classed as cell-based. Particulars: EGI-1 cell line; IC50 only in FIG. 3C-3E.
In data set [13] the test system is WITT. The experiment in a line: tumor organoid assay, WITT. The data set is classed as cell-based. The note with it: tivozanib at 200 nM vs control. On the procedure:
as §1

Data set [14] addresses VEGFR-3 (Homo sapiens, UniProt P35916). Particulars: at clinically relevant concentrations; cited from earlier work.
Data set [15] concerns liver metastasis from a patient with XPO7-expressing cholangiocarcinoma. The experiment in a line: ex vivo tumor SMART platform, H&E and Ki67 staining. Type of data set: cell-based, human. How it is done:
Finally, tivozanib was evaluated in the ex vivo tumor SMART platform described in International Patent Application No. WO2021/183527 which is incorporated by reference herein for all purposes. A liver metastasis from a patient with XPO7-expressing cholangiocarcinoma was evaluated using H&E staining and Ki67 staining to contrast treatment with control versus tivozanib.

Data set [16] relates to SNU-1070. Briefly: tumor organoid assay, SNU-1070 (SNU-1079). Type of data set: cell-based. The note with it: SNU-1070 as printed; tivozanib at 200 nM vs control. On the procedure:
as §1

Data set [17] has as its target SLK (Homo sapiens, UniProt Q9H2G2). Briefly: kinome inhibition screen. The note with it: FIG. 3A.
Data set [18] concerns AKT S473 phosphorylation. The experiment in a line: AKT S473 phosphorylation in SNU-1079 cholangiocarcinoma cells. The note with it: SNU-1079 cell line, compared to control levels. Type of data set: cell-based.

Chain of SLK (Q9H2G2 whole entry): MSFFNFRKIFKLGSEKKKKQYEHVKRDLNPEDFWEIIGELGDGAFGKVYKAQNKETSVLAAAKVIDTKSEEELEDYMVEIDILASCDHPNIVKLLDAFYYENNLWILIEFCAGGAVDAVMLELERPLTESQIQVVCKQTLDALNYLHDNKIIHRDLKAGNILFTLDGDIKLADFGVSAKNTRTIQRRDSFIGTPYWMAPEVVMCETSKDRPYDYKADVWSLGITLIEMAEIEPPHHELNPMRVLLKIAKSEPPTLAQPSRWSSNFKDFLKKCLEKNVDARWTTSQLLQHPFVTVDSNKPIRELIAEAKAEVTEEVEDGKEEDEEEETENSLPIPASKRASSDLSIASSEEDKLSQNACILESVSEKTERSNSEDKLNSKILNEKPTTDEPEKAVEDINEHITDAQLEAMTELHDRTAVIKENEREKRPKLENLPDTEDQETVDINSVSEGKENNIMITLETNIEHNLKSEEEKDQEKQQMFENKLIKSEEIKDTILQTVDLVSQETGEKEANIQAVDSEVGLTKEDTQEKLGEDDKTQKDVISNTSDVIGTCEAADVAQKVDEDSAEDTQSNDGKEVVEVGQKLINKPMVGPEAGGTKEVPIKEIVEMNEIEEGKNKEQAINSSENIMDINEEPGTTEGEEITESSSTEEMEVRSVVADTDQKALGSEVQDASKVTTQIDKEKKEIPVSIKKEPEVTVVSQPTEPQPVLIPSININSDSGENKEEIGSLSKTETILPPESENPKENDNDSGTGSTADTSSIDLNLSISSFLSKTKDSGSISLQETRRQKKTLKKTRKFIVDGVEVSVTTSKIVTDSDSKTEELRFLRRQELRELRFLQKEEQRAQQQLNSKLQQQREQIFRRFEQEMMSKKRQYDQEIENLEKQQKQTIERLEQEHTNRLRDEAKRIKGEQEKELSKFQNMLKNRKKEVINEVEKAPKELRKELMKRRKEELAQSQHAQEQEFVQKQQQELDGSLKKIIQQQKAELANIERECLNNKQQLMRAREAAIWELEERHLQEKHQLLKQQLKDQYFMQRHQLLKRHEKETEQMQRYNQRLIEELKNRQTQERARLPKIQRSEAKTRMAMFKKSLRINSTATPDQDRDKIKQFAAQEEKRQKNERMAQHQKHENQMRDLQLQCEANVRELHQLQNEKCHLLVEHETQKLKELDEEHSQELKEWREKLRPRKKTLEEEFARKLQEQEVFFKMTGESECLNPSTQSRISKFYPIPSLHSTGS
Chain of VEGFR-3 (P35916 25-1363): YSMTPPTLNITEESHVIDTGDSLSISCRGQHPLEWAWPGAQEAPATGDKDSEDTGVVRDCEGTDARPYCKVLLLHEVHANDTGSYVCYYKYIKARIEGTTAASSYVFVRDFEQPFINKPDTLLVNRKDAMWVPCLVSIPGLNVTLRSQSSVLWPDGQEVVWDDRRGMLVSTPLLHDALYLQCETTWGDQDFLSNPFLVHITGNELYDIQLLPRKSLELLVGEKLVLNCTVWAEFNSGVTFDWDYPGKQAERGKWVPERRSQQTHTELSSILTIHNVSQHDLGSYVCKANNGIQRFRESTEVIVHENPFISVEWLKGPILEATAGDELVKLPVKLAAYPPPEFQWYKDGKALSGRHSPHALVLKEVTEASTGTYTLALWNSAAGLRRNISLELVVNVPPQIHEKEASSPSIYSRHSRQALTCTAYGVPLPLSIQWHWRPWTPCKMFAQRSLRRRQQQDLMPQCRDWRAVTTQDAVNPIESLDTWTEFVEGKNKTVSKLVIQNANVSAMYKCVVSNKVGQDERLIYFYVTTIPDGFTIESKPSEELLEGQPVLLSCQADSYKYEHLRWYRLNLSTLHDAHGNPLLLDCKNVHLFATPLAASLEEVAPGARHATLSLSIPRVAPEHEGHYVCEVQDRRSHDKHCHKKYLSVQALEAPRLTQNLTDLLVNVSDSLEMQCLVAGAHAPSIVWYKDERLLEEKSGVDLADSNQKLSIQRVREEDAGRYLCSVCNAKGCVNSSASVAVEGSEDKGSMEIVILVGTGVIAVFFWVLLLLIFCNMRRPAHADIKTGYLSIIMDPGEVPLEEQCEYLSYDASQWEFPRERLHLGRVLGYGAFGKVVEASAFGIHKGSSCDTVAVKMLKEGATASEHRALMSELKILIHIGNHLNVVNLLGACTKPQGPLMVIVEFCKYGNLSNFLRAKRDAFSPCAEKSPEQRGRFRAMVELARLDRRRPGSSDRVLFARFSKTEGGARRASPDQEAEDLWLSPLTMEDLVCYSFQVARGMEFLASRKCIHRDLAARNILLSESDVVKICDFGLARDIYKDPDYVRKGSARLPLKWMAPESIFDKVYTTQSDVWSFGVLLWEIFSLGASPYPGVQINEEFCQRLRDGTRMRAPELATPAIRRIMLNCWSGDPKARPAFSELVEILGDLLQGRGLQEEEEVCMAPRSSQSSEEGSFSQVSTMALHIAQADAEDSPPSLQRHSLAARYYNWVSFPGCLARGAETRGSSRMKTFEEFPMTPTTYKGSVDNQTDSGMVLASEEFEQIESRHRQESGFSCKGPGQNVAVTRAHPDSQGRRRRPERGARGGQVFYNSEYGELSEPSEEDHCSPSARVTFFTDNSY

As to bevacizumab: an anti-VEGF antibody, the “average tumor volume vs control group” value in [1] (bevacizumab, standard murine dose, 28 days of treatment) was “statistically significantly smaller”.
On to `COc1cc2nccc(Oc3ccc(NC(=O)Nc4cc(C)on4)c(Cl)c3)c2cc1OC` [Tivozanib hydrochloride, 1-{2-chloro-4-[(6,7-dimethoxyquinolin-4-yl)oxy]phenyl}-3-(5-methylisoxazol-3-yl) urea hydrochloride hydrate], for which the solubility in water entry in [2] is listed as “practically insoluble in water”.
Take `COc1cc2nccc(Oc3ccc(NC(=O)Nc4cc(C)on4)c(Cl)c3)c2cc1OC` [tivozanib, N-{2-chloro-4-[(6,7-dimethoxy-4-quinolyl)oxy]-phenyl}-N′-(5-methyl-3-isoxazolyl) urea]: the “AKT S473 phosphorylation” value in data set [3], in data set [7] and in [18] was “inhibited AKT S473 phosphorylation” each time. Besides, in [4], the angiogenesis entry is on record as “inhibited”. In addition, in [4], the tumor growth result was “inhibited”. Also, the inhibition of c-kit entry in data set [5] is “inhibits”. The “inhibition of PDGFR β” value in data set [6] was “inhibits”. The proliferation entry in [8], in [10] and in [12] was “inhibited proliferation” in each case. For the same compound, the tumor organoid formation result in data set [9], in [13] and in data set [16] was “abrogated tumor formation” throughout. In addition, the incidence of hypertension entry in [11] is reported as “high incidence”. The “phosphorylation of VEGFR-3” value in data set [14] is listed as “inhibits phosphorylation”. Further, the cell degeneration result in [15] (0.2 μg/mL tivozanib) and in data set [15] (1 μg/mL tivozanib) was “statistically significant increased cell degeneration” in each case. Further, the “viable cells compared to control” value in [15] (0.2 μg/mL tivozanib) and in [15] (1 μg/mL tivozanib) was “fewer viable cells” each time. The “Ki67 staining (dark stained nuclei)” value in data set [15] (day 4, vs control tissue (0 μg/mL tivozanib)) is “reduction in dark stained nuclei”. The cell death entry in data set [15] (higher dose level (1 μg/mL tivozanib)) was “statistically significant levels of cell death”. For the same compound, the “tumor growth in vivo” value in [1] (EGI-1 subcutaneous xenograft) is recorded as “inhibited tumor growth”. Also, the “final tumor volume vs control vehicle” value in data set [1] (tivozanib 20 mg/kg/day for 28 days, p value of <0.001) was “statistically significantly smaller in volume”. Besides, the “change in tumor volume over the course of treatment” value in data set [1] (waterfall plot FIG. 3I, compared to control) was “substantial change in tumor volume”. Further, the “inhibition of SLK” value in data set [17] was “potent inhibitor of SLK”.

Values taken from patent US20250339421A1, “METHODS FOR TREATING BILE DUCT CANCERS WITH TIVOZANIB” (The U.S.A., as represented by the Secretary, Department of …, priority 2021, published 2025).
